Paper PMC9203275, “Lysosome lipid signalling from the periphery to neurons regulates longevity” (Nature Cell Biology, 2022)

Key:
LBP-3 = molecular target: T1, LBP-3 (Caenorhabditis elegans, UniProt Q20222); experiment: competitive fluorescence displacement of […],8-ANS; type: binding; settings: one-site Fit Ki; competition with 1,8-ANS probe
T1 sequence (Q20222 16-165): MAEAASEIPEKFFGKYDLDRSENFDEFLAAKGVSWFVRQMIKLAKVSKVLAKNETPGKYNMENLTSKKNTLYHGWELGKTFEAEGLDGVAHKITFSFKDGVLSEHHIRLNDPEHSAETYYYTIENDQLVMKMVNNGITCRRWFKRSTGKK

LBP-2 = molecular target: T2, LBP-2 (Caenorhabditis elegans, UniProt Q20224); experiment: mass spectrometry of fatty acids bound after incubation with C. elegans lipid extract; type: binding; settings: competition within C. elegans lipid extract
T2 sequence (Q20224 19-161): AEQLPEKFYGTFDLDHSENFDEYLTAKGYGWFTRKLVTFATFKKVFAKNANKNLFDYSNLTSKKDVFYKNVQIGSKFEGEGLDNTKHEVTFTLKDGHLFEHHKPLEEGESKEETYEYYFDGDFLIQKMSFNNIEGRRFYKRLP

Row | SMILES | Kd (LBP-3) [µM] | % occupancy among bound PUFAs (LBP-2) [%]
1 | CC/C=C\C/C=C\C/C=C\C/C=C\C/C=C\CCCC(=O)O [EPA, eicosapentaenoic acid] | 4.76 | 6
2 | CCCCC/C=C\C/C=C\C/C=C\CCCCCCC(=O)O [DGLA, dihomo-γ-linolenic acid] | 11 | 1
